Results reported in patent publication US5914314A (priority 1989, dated 1999).

Legend:
[1] = topical application to scalp, hair growth; assay type: in vivo, human; details: Case XXX: balding patient; topically to scalp
Description: This patient was diagnosed in January, 1990. A gastric resection and colonic replacement of oesophagus (for swallowing) was performed. They had also developed an intraperitoneal tumor. They were given chemotherapy and lost their hair. […] Dr. Falk saw this patient on Jun.
This balding patient applied the product "minoxidil" sold under the trademark "ROGAINE" topically to their scalp.

tumor = details: injected directly into a tumor
[2] = test system: Grafts from ACI strain rats (black) to Lewis Strain rats (white); assay: standard rat skin graft rejection model; assay type: in vivo; details: hyaluronic acid added to cyclosporin
[3] = side effects / toxicity in human patients; assay type: in vivo; details: 10 to 1000 mg/70 kg person
[4] = Case XXVIII: carcinoma of the ovary, 40 kg; 120-200 mg LASIX intravenously
[5] = following intravenous administration; cited from earlier work

## Nc1cc(N2CCCCC2)nc(N)[n+]1[O-] [ROGAINE, minoxidil]
[1]
  hair growth: minimal or little hair growth

## CCO [ethyl alcohol]
tumor
  dispersion in tumor, sonographic (ultrasound) assessment: not dispersed throughout the tumor

## hyaluronic acid
[2]
  cyclosporin induced graft survival: significantly increased cyclosporin induced graft survival
[3]
  toxicity: no toxicity

## NS(=O)(=O)c1cc(C(=O)O)c(NCc2ccco2)cc1Cl [LASIX, furosemide]
[4]
  total volume of urine over 48 hours: 2,450 ml
[5]
  duration of action: about 2 hours
  onset of diuresis: ≤ 30 min
